Measurements reported in the NIST ThermoML archive (doi:10.1021/je800876t).

Test: molar heat capacity at constant pressure
Settings: 101.33 kPa, Crystal, Vacuum adiabatic calorimetry

O=C([O-])c1ccccc1.O=C([O-])c1ccccc1.[Ba+2] [barium benzoate]
Settings | molar heat capacity at constant pressure [J/K/mol]
77.78 K | 109.64
79.5 K | 111.79
82.08 K | 114.77
84.57 K | 117.57
86.98 K | 119.65
89.39 K | 121.92
91.65 K | 124.31
93.86 K | 126.6
96.1 K | 128.79
98.25 K | 130.89
100.3 K | 132.67
102.4 K | 134.86
104.4 K | 137.21
106.5 K | 139.25
108.3 K | 141.18
110.3 K | 142.99
112.2 K | 144.86
114.1 K | 146.37
115.9 K | 148.24
117.8 K | 150.2
119.6 K | 152.24
122.4 K | 154.37
125.9 K | 157.49
128.8 K | 160.12
131.6 K | 162.83
134.5 K | 165.78
137.4 K | 168.03
140.3 K | 170.89
143.1 K | 173.54
146.1 K | 176.75
148.9 K | 178.82
152.8 K | 182.27
154.7 K | 184.19
157.6 K | 186.99
160.4 K | 189.18
163.4 K | 191.95
166.3 K | 194.11
169.1 K | 197.21
172 K | 199.98
174.9 K | 202.6
177.8 K | 204.53
180.6 K | 207.13
184.7 K | 211.18
188.6 K | 214.68
191.5 K | 216.93
194.4 K | 219.24
197.2 K | 221.9
200.2 K | 224.02
203.1 K | 226.01
206 K | 228.46
208.9 K | 231.14
211.8 K | 233.77
214.6 K | 235.99
217.5 K | 238.64
220.5 K | 240.68
223.4 K | 243.49
226.3 K | 245.79
229.1 K | 248.3
232 K | 250.4
235 K | 253.03
238 K | 255.71
242.6 K | 259.3
245.5 K | 262.07
248.3 K | 264.47
251.2 K | 266.71
254.2 K | 269.22
257 K | 270.83
259.8 K | 272.78
262.7 K | 276.16
265.6 K | 277.74
268.6 K | 279.79
271.6 K | 282.06
274.5 K | 284.16
277.5 K | 286.12
280.4 K | 288.42
283.3 K | 290.79
286.3 K | 292.92
289.2 K | 295.05
292 K | 297.35
294.9 K | 299.58
297.9 K | 301.75
300.8 K | 303.71
303.6 K | 305.99
306.5 K | 308.5
309.3 K | 310.54
312.2 K | 312.73
315.2 K | 314.63
318.2 K | 316.73
321.2 K | 318.3
324.1 K | 320.78
327 K | 322.91
330 K | 325.19
332.9 K | 327.09
335.9 K | 329.01
338.7 K | 330.94
341.6 K | 333.36
344.6 K | 335.34
347.5 K | 337.3
350.3 K | 339.28
353.2 K | 340.83
356.2 K | 342.81
359 K | 344.74
361.9 K | 346.43
364.8 K | 348.25
367.6 K | 350.41
370.5 K | 352.35
373.5 K | 354.08
376.4 K | 355.62
379.4 K | 358.05
382.4 K | 359.77
385.3 K | 361.34
388.3 K | 363.44
390.7 K | 364.99
393 K | 366.42
395.9 K | 368.64
398.9 K | 370.39
401.9 K | 371.91
